Measurements published in patent US10959428B2, “Hematophagous arthropod repellent composition” (WOOJUNG BIO INC., priority 2017, dated 2021).
Several values for one entry are separate records, joined by “and”; a condition that tells them apart may be missing. Equal entries are not always repeated.

What was measured:
adult Aedes albopicus = assay: cage-in-arm test, repellency and CPT; type: in vivo, Aedes albopictus; details: for CPT: 4 mg, adult Aedes albopicus
Procedure: (§1) For determining the repellency of prepared samples against adults of Aedes aegypti and Aedes albopicus, a cage-in-arm test was carried out as a method for exposure to skin. Namely, on a back of the hand of a rubber glove, a hole with diameter of 5 cm was created, and, onto an exposed back of the testees, various samples prepared by dissolution in 100 μl of ethanol were applied, and then the skin test was carried out. The testees were healthy males between the ages of 21 and 40. The control group was treated with 100 μl of ethanol only. Female adults (5 to 8 day old) of Aedes aegypti or Aedes albopicus (250 to 300 mosquitoes) were added to a cage for growing adult mosquitoes (25×25×25 cm^3), and adapted to the indoor conditions for 12 to 24 hours before starting the test. When the upper arm of the control group is exposed for 1 minute and at least 6 mosquitoes sit on the upper arm or show a bloodsucking behavior, it was determined as sufficient biting pressure, and then the repellency test was carried out. With an interval of 30 minutes, by exposing the upper arm, which has been treated with the above composition, for 3 minutes, and, when the adult mosquito sits on the arm for 2 seconds or longer or at least two mosquitoes showing the behavior of mouth injection to skin or direct bloodsucking are found from consecutive tests, the test was stopped. The time period between the time point with initial treatment of a material and the time point at which 2 or more mosquitoes continuously sit on the treatment area or show the bloodsucking behavior was defined as complete protection time (CPT). Furthermore, for obtaining the repellency with regard to concentration, exposure was made for a constant time period regardless of the above and the repellency was calculated by using the following formula. Accordingly, the effect was compared among each test samples. All tests were carried out in triplicate. Repellency %=(Number of insects showing bloodsucking behavior in non-treatment group−Number of insects showing bloodsucking behavior in treatment group)/Number of insects showing bloodsucking behavior in non-treatment group)×100 <Tick Repellency>
For reference, comparison of the mosquito repellency was made by using clove oil as a natural positive control group and DEET as a synthetic positive control group.
To determine the repellency of plant essential oil alone against adult Aedes albopicus and nymphs of Haemaphysalis longicornis, the cage-in-arm test and finger-tip method were carried out, in the same manner as Examples 1-2 and 1-3, with each of 16 kinds of plant essential oil of Table 4.

adult Aedes aegypti = assay: cage-in-arm test, complete protection time (CPT); type: in vivo; details: 4 mg
Procedure: as §1, with “With an interval of 30 minutes, by exposing the upper arm, which has been treated with the above composition, for 3 minutes, and, when the adult mosquito sits on the arm for 2 seconds or longer or at least two mosquitoes showing the behavior of mouth injection to skin or direct bloodsucking are found from consecutive tests, the test was stopped.” left out

[1] = system: nymphs of Haemaphysalis longicornis; assay: finger-tip method, tick repellency; type: in vivo
Procedure: By having the outdoor group of Haemaphysalis longicornis collected from the region around Bongdam-Myon, Hwasung-Shi, Kunggi-Do, South Korea as a subject, the repellency against ticks was determined by employing a finger-tip method. In 50 μl of ethanol, each sample was dissolved in an amount of 2 mg, and then treated on the second nodule of a third finger. […] All tests were carried out in triplicate. Repellency %=(Number of insects showing bloodsucking behavior in non-treatment group−Number of insects showing bloodsucking behavior in treatment group)/Number of insects showing bloodsucking behavior in non-treatment group)×100 […]

## CCN(CC)C(=O)c1cccc(C)c1 [DEET, N,N-diethyl-m-toluamide]
Adult Aedes albopicus; 0.03 mg/cm^2, 10 minutes
  Repellency (mean ± SE, %): 77 ± 5.8%
Adult Aedes albopicus; 0.03 mg/cm^2, 30 minutes
  Repellency (mean ± SE, %): 67 ± 3.3%
Adult Aedes albopicus; 0.03 mg/cm^2, 60 minutes
  Repellency (mean ± SE, %): 69 ± 6.9%
Adult Aedes albopicus; 0.03 mg/cm^2, 90 minutes
  Repellency (mean ± SE, %): 19 ± 5.2%
Adult Aedes albopicus; 0.10 mg/cm^2, 10 minutes
  Repellency (mean ± SE, %): 100 ± 0%
Adult Aedes albopicus; 0.10 mg/cm^2, 30 minutes
  Repellency (mean ± SE, %): 96 ± 2.6%
Adult Aedes albopicus; 0.10 mg/cm^2, 60 minutes
  Repellency (mean ± SE, %): 86 ± 4.2%
Adult Aedes albopicus; 0.10 mg/cm^2, 90 minutes
  Repellency (mean ± SE, %): 83 ± 4.3%
Adult Aedes albopicus; 0.10 mg/cm^2, 120 minutes
  Repellency (mean ± SE, %): 82 ± 9.5%
Adult Aedes albopicus; 0.10 mg/cm^2, 150 minutes
  Repellency (mean ± SE, %): 57 ± 5.2%
Adult Aedes albopicus; 0.10 mg/cm^2, 180 minutes
  Repellency (mean ± SE, %): 27 ± 3.8%
Adult Aedes albopicus; 0.20 mg/cm^2, 10 minutes
  Repellency (mean ± SE, %): 100 ± 0%
Adult Aedes albopicus; 0.20 mg/cm^2, 30 minutes
  Repellency (mean ± SE, %): 100 ± 0%
Adult Aedes albopicus; 0.20 mg/cm^2, 60 minutes
  Repellency (mean ± SE, %): 100 ± 0%
Adult Aedes albopicus; 0.20 mg/cm^2, 90 minutes
  Repellency (mean ± SE, %): 100 ± 0%
Adult Aedes albopicus; 0.20 mg/cm^2, 120 minutes
  Repellency (mean ± SE, %): 95 ± 3.3%
Adult Aedes albopicus; 0.20 mg/cm^2, 150 minutes
  Repellency (mean ± SE, %): 96 ± 1.2%
Adult Aedes albopicus; 0.20 mg/cm^2, 180 minutes
  Repellency (mean ± SE, %): 85 ± 3.0%
Adult Aedes albopicus; 0.25 mg/cm^2, 10 minutes
  Repellency (mean ± SE, %): 100 ± 0%
Adult Aedes albopicus; 0.25 mg/cm^2, 30 minutes
  Repellency (mean ± SE, %): 100 ± 0%
Adult Aedes albopicus; 0.25 mg/cm^2, 60 minutes
  Repellency (mean ± SE, %): 100 ± 0%
Adult Aedes albopicus; 0.25 mg/cm^2, 90 minutes
  Repellency (mean ± SE, %): 100 ± 0%
Adult Aedes albopicus; 0.25 mg/cm^2, 120 minutes
  Repellency (mean ± SE, %): 100 ± 0%
Adult Aedes albopicus; 0.25 mg/cm^2, 150 minutes
  Repellency (mean ± SE, %): 100 ± 0%
Adult Aedes albopicus; 0.25 mg/cm^2, 180 minutes
  Repellency (mean ± SE, %): 84 ± 4.3%
Adult Aedes albopicus
  CPT: 90 min
Adult Aedes aegypti; adult Aedes aegypti
  CPT: 90 min
Adult Aedes aegypti; adult Aedes aegypti (Table 6)
  CPT: 90 min

## vanillin isobutyrate
Adult Aedes aegypti; adult Aedes aegypti
  CPT: 45 min

## COc1cc(CCC(C)=O)ccc1O [Vanillyl acetone, vanillyl acetone]
Adult Aedes aegypti; adult Aedes aegypti
  CPT: 10 min

## COc1ccc(C=O)cc1OC [3,4-Dimethoxybenzaldehyde, 3,4-dimethoxybenzaldehyde]
Adult Aedes albopicus; 0.03 mg/cm^2, 10 minutes
  Repellency (mean ± SE, %): 100 ± 0%
Adult Aedes albopicus; 0.03 mg/cm^2, 30 minutes
  Repellency (mean ± SE, %): 75 ± 7.1%
Adult Aedes albopicus; 0.03 mg/cm^2, 60 minutes
  Repellency (mean ± SE, %): 54 ± 4.3%
Adult Aedes albopicus; 0.10 mg/cm^2, 10 minutes
  Repellency (mean ± SE, %): 100 ± 0%
Adult Aedes albopicus; 0.10 mg/cm^2, 30 minutes
  Repellency (mean ± SE, %): 93 ± 4.3%
Adult Aedes albopicus; 0.10 mg/cm^2, 60 minutes
  Repellency (mean ± SE, %): 90 ± 4.1%
Adult Aedes albopicus; 0.10 mg/cm^2, 90 minutes
  Repellency (mean ± SE, %): 83 ± 8.8%
Adult Aedes albopicus; 0.10 mg/cm^2, 120 minutes
  Repellency (mean ± SE, %): 58 ± 5.5%
Adult Aedes albopicus; 0.20 mg/cm^2, 10 minutes
  Repellency (mean ± SE, %): 100 ± 0%
Adult Aedes albopicus; 0.20 mg/cm^2, 30 minutes
  Repellency (mean ± SE, %): 100 ± 0%
Adult Aedes albopicus; 0.20 mg/cm^2, 60 minutes
  Repellency (mean ± SE, %): 99 ± 2.3%
Adult Aedes albopicus; 0.20 mg/cm^2, 90 minutes
  Repellency (mean ± SE, %): 94 ± 4.6%
Adult Aedes albopicus; 0.20 mg/cm^2, 120 minutes
  Repellency (mean ± SE, %): 91 ± 1.7%
Adult Aedes albopicus; 0.20 mg/cm^2, 150 minutes
  Repellency (mean ± SE, %): 83 ± 2.6%
Adult Aedes albopicus; 0.20 mg/cm^2, 180 minutes
  Repellency (mean ± SE, %): 65 ± 6.0%
Adult Aedes albopicus; 0.25 mg/cm^2, 10 minutes
  Repellency (mean ± SE, %): 100 ± 0%
Adult Aedes albopicus; 0.25 mg/cm^2, 30 minutes
  Repellency (mean ± SE, %): 100 ± 0%
Adult Aedes albopicus; 0.25 mg/cm^2, 60 minutes
  Repellency (mean ± SE, %): 100 ± 0%
Adult Aedes albopicus; 0.25 mg/cm^2, 90 minutes
  Repellency (mean ± SE, %): 100 ± 0%
Adult Aedes albopicus; 0.25 mg/cm^2, 120 minutes
  Repellency (mean ± SE, %): 100 ± 0%
Adult Aedes albopicus; 0.25 mg/cm^2, 150 minutes
  Repellency (mean ± SE, %): 95 ± 3.2%
Adult Aedes albopicus; 0.25 mg/cm^2, 180 minutes
  Repellency (mean ± SE, %): 58 ± 4.4%
Adult Aedes albopicus
  CPT: 50 min
Adult Aedes aegypti; adult Aedes aegypti
  CPT: 70 min
Adult Aedes aegypti; adult Aedes aegypti, listed as 3,4-demethoxybenzaldehyde
  CPT: 70 min
[1]; 0.01 mg/cm^2, 15 min.
  Repellency (mean ± SE, %): 100 ± 0%
[1]; 0.01 mg/cm^2, 30 min.
  Repellency (mean ± SE, %): 100 ± 0%
[1]; 0.01 mg/cm^2, 60 min.
  Repellency (mean ± SE, %): 98 ± 2.5%
[1]; 0.01 mg/cm^2, 90 min.
  Repellency (mean ± SE, %): 98 ± 2.5%
[1]; 0.01 mg/cm^2, 120 min.
  Repellency (mean ± SE, %): 90 ± 5.8%
[1]; 0.01 mg/cm^2, 150 min.
  Repellency (mean ± SE, %): 95 ± 2.9%
[1]; 0.01 mg/cm^2, 180 min.
  Repellency (mean ± SE, %): 95 ± 2.9%
[1]; 0.01 mg/cm^2, 210 min.
  Repellency (mean ± SE, %): 73 ± 10.3%
[1]; 0.01 mg/cm^2, 240 min.
  Repellency (mean ± SE, %): 65% and 65 ± 2.9%
[1]; 0.01 mg/cm^2, 270 min.
  Repellency (mean ± SE, %): 43 ± 4.8%
[1]; 0.02 mg/cm^2, 15 min.
  Repellency (mean ± SE, %): 100 ± 0%
[1]; 0.02 mg/cm^2, 30 min.
  Repellency (mean ± SE, %): 100 ± 0%
[1]; 0.02 mg/cm^2, 60 min.
  Repellency (mean ± SE, %): 100 ± 0%
[1]; 0.02 mg/cm^2, 90 min.
  Repellency (mean ± SE, %): 98 ± 2.5%
[1]; 0.02 mg/cm^2, 120 min.
  Repellency (mean ± SE, %): 98 ± 2.5%
[1]; 0.02 mg/cm^2, 150 min.
  Repellency (mean ± SE, %): 100 ± 0%
[1]; 0.02 mg/cm^2, 180 min.
  Repellency (mean ± SE, %): 98 ± 2.5%
[1]; 0.02 mg/cm^2, 210 min.
  Repellency (mean ± SE, %): 95 ± 5.0%
[1]; 0.02 mg/cm^2, 240 min.
  Repellency (mean ± SE, %): 85 ± 2.9%
[1]; 0.02 mg/cm^2, 270 min.
  Repellency (mean ± SE, %): 63 ± 4.8%
[1]; 0.02 mg/cm^2, 300 min.
  Repellency (mean ± SE, %): 48 ± 2.5%
[1]; 0.02 mg/cm^2 or higher, 4 hours after the treatment
  repellency: ≥ 78%
[1]; 0.05 mg/cm^2, 15 min.
  Repellency (mean ± SE, %): 100 ± 0%
[1]; 0.05 mg/cm^2, 30 min.
  Repellency (mean ± SE, %): 100 ± 0%
[1]; 0.05 mg/cm^2, 60 min.
  Repellency (mean ± SE, %): 100 ± 0%
[1]; 0.05 mg/cm^2, 90 min.
  Repellency (mean ± SE, %): 98 ± 2.5%
[1]; 0.05 mg/cm^2, 120 min.
  Repellency (mean ± SE, %): 98 ± 2.5%
[1]; 0.05 mg/cm^2, 150 min.
  Repellency (mean ± SE, %): 85 ± 2.9%
[1]; 0.05 mg/cm^2, 180 min.
  Repellency (mean ± SE, %): 83 ± 6.3%
[1]; 0.05 mg/cm^2, 210 min.
  Repellency (mean ± SE, %): 85 ± 6.5%
[1]; 0.05 mg/cm^2, 240 min.
  Repellency (mean ± SE, %): 78 ± 4.8%
[1]; 0.05 mg/cm^2, 270 min.
  Repellency (mean ± SE, %): 70 ± 4.1%
[1]; 0.05 mg/cm^2, 300 min.
  Repellency (mean ± SE, %): 50 ± 4.1%
[1]; 0.09 mg/cm^2, 15 min.
  Repellency (mean ± SE, %): 100 ± 0%
[1]; 0.09 mg/cm^2, 30 min.
  Repellency (mean ± SE, %): 100 ± 0%
[1]; 0.09 mg/cm^2, 60 min.
  Repellency (mean ± SE, %): 100 ± 0%
[1]; 0.09 mg/cm^2, 90 min.
  Repellency (mean ± SE, %): 98 ± 2.5%
[1]; 0.09 mg/cm^2, 120 min.
  Repellency (mean ± SE, %): 100 ± 0%
[1]; 0.09 mg/cm^2, 150 min.
  Repellency (mean ± SE, %): 100 ± 0%
[1]; 0.09 mg/cm^2, 180 min.
  Repellency (mean ± SE, %): 100 ± 0%
[1]; 0.09 mg/cm^2, 210 min.
  Repellency (mean ± SE, %): 98 ± 2.5%
[1]; 0.09 mg/cm^2, 240 min.
  Repellency (mean ± SE, %): 83 ± 2.5%
[1]; 0.09 mg/cm^2, 270 min.
  Repellency (mean ± SE, %): 73 ± 6.3%
[1]; 0.09 mg/cm^2, 300 min.
  Repellency (mean ± SE, %): 65 ± 2.9%

## COc1cc(C=O)ccc1O [Vanillin]
Adult Aedes aegypti; adult Aedes aegypti
  CPT: 30 min

## C=CCc1ccc(O)c(OC)c1 [Eugenol (clove), Eugenol]
Adult Aedes albopicus
  CPT: 10 min

## C=CCc1ccc(O)c(OC)c1 [Eugenol, eugenol, reference compound]
Adult Aedes aegypti; adult Aedes aegypti
  CPT: 10 min

## COc1cc(C=O)ccc1OCc1ccccc1 [4-Benzyloxy-3-methoxybenzaldehyde, 4-benzyloxy-3-methoxybenzaldehyde]
Adult Aedes aegypti; adult Aedes aegypti
  CPT: 22 min

## COc1cc(CN)ccc1O.Cl [4-hydroxy-3-methoxybenzylamine hydrochloride]
Adult Aedes aegypti; adult Aedes aegypti
  CPT: 10 min

## COc1cc(C=O)ccc1OC(=O)OC(C)(C)C [tert-butyl 4-formyl-2-methoxyphenyl carbonate]
Adult Aedes aegypti; adult Aedes aegypti
  CPT: 10 min
